Results reported in US11679107B2 (Eisai R&D Management Co., Ltd., priority 2018, dated 2023).
Like-named read-outs stand apart in the source and are kept apart here.

How the values were obtained:
[1] = test system: Ad2 variant pre-mRNAs spliced in HeLa S3 nuclear extracts; assay: In vitro splicing assay (IVS), RT-qPCR of spliced product; type: biochemical; details: for IC50: geometric mean; for Ratio Ad2.1/2.2: ratio of IVS IC50 Ad2.1 to Ad2.2
Procedure, shortened: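 Ad2 variant pre-mRNA (2 ng) with FTZΔi control RNA in HeLa S3 nuclear extract (8 μg) was pre-incubated with compound or DMSO for 15 min at 30 °C. Splicing ran 90 min at 30 °C after adding 0.5 mM ATP, creatine phosphate and MgCl2. Spliced product was quantified by TaqMan RT-qPCR, normalized to DMSO, and curve-fitted.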

[2] = test system: Panc 05.04 cells (SF3b K700E mutant); assay: Cell proliferation and viability, CellTiter-Glo, 72 hours; type: cell-based; details: for GI50: geometric mean
Procedure, shortened: (§1)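 Cells grown in RPMI-1640 with 10% FBS (Panc line with added insulin and FBS to 15%) were exposed to an 11-point half-log dilution series, typically 10 μM-100 pM, at 0.1% final DMSO. After incubation at 37° C, 5% CO2, ATP content was measured by luminescence and normalized to a time-zero plate and DMSO wells.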

[3] = test system: NCI-H1568 cells (high MCL1); assay: as above; type: cell-based; details: for GI50: geometric mean
Procedure, shortened: as §1

SF3b complexes = target: T1, SF3b complexes (Homo sapiens, UniProt O75533+Q7RTV0); assay: Scintillation proximity assay (SPA) with [3H]-labelled pladienolide probe; type: binding; details: SF3B1 (WT); geometric mean; read-out: SPA-ATS GMean IC50 (nM) SF3B1 (WT)
T1 construct: endogenous in cells; host or cells: Nuclear extracts; A HeLa S3 extract preparation is described for the in vitro splicing assay
Procedure, shortened: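 SF3b complexes captured from nuclear extracts on anti-SF3B1 antibody SPA beads; test compounds pre-incubated 30 min before 2.5 nM [3H]-pladienolide probe added, then 30 min incubation. Bound probe read by scintillation; values from non-linear regression of concentration–response curves.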

[4] = Ad2.1 pre-mRNA substrate, read-out: qPCR-IVS-ATS GMean IC50 (nM) Ad2.1
[5] = Ad2.2 pre-mRNA substrate, read-out: qPCR-IVS-ATS GMean IC50 (nM) Ad2.2
[6] = PANC0504.1 cells, 72 h, −100% cidal, 0% static, 100% maximal growth
[7] = Panc 05.04, read-out: CTGlo-ATS GMean GI50 (nM) 72 h PANC0504.1, PANC0504.1 cells, 72 h
[8] = NCI-H1568, read-out: CTGlo-ATS GMean GI50 (nM) 72 h NCIH1568.1, NCIH1568.1 cells, 72 h
[9] = NCIH1568.1 cells, 72 h, −100% cidal, 0% static, 100% maximal growth
[10] = 72 h, PANC0504.1, -100% = cidal, 0% = static, 100% = uninhibited growth
[11] = 72 h, NCIH1568.1, -100% = cidal, 0% = static, 100% = uninhibited growth
[12] = Panc 05.04, read-out: CTGlo-ATS GMean GI50 (nM) 72 h PANC0504.1, 72 h, PANC0504.1
[13] = NCI-H1568, read-out: CTGlo-ATS GMean GI50 (nM) 72 h NCIH1568.1, 72 h, NCIH1568.1

Compound | IC50 [1, 4] | IC50 [1, 5] | CTGlo-ATS Mean MinResponse % 72 h PANC0504.1 [2, 6] | GI50 [2, 7] | GI50 [3, 8] | CTGlo-ATS Mean MinResponse % 72 h NCIH1568.1 [3, 9] | IC50 (SF3b complexes) | GI50 ([2]; Panc 05.04, 72 h, read-out: CTGlo-ATS GMean GI50 (nM) 72 h PANC0504.1, PANC0504.1 cells, 72 h) | GI50 ([3]; NCI-H1568, 72 h, read-out: CTGlo-ATS GMean GI50 (nM) 72 h NCIH1568.1, NCIH1568.1 cells, 72 h) | Ratio Ad2.1/2.2 [1] | CTGlo-ATS Mean MinResponse % 72 h PANC0504.1 [2, 10] | GI50 ([2]; Panc 05.04, 72 h, read-out: CTGlo-ATS GMean GI50 (nM) 72 h PANC0504.1, 72 h, PANC0504.1) | CTGlo-ATS Mean MinResponse % 72 h NCIH1568.1 [3, 11] | GI50 ([3]; NCI-H1568, 72 h, read-out: CTGlo-ATS GMean GI50 (nM) 72 h NCIH1568.1, 72 h, NCIH1568.1) | GI50 [2, 12] | GI50 [3, 13]
C/C(=C\c1cc(F)cc(N(C)C2CCOCC2)c1)[C@H]1OC(=O)C[C@H](O)CC[C@H](C)[C@@H](OC(=O)N2CCN(C)CC2)/C=C/[C@@H]1C [Compound 168] | 27.6 nM | 16.5 nM | −86.930% | 10.4 nM | 5.96 nM | −75.760% | 3.05 nM |  |  |  |  |  |  |  |  | 
C/C(=C\c1cc(F)cc(N(C)C2COC2)c1)[C@H]1OC(=O)C[C@H](O)CC[C@H](C)[C@@H](OC(=O)N2CCN(C)CC2)/C=C/[C@@H]1C [Compound 169] | 96.6 nM | 19.8 nM | −90.232% | 8.9 nM | 8.26 nM | −66.086% | 1.43 nM |  |  |  |  |  |  |  |  | 
C/C(=C\c1cccc(N(C)C2CCOCC2)c1)[C@H]1OC(=O)C[C@H](O)CC[C@H](C)[C@@H](OC(=O)N2CCN(C)CC2)/C=C/[C@@H]1C [Compound 170] | 11000 nM | 31 nM | −96.570% | 23.2 nM | 25.9 nM | −56.895% | 4.93 nM |  |  |  |  |  |  |  |  | 
C/C(=C\c1cccc(N(C)C2COC2)c1)[C@H]1OC(=O)C[C@H](O)CC[C@H](C)[C@@H](OC(=O)N2CCN(C)CC2)/C=C/[C@@H]1C [Compound 171] | 18800 nM | 42.6 nM | −92.998% |  |  | −50.083% | 1.51 nM | 23.6 nM | 19.6 nM |  |  |  |  |  |  | 
C/C(=C\c1cc(F)cc(N(C)C2CCS(=O)(=O)CC2)c1)[C@H]1OC(=O)C[C@H](O)CC[C@H](C)[C@@H](OC(=O)N2CCN(C)CC2)/C=C/[C@@H]1C [Compound 172] | 22.6 nM | 15.4 nM | −88.455% | 17.9 nM | 8.72 nM | −74.177% | 5.58 nM |  |  |  |  |  |  |  |  | 
C/C(=C\c1cc(F)cc(N(C)C2CCN(S(C)(=O)=O)CC2)c1)[C@H]1OC(=O)C[C@H](O)CC[C@H](C)[C@@H](OC(=O)N2CCN(C)CC2)/C=C/[C@@H]1C [Compound 174] | 13.1 nM | 10.7 nM | −80.529% | 6.04 nM | 3.86 nM | −92.525% | 3.14 nM |  |  |  |  |  |  |  |  | 
C/C(=C\c1cc(F)cc(S(=O)(=O)N2CCCC2)c1)[C@H]1OC(=O)C[C@H](O)CC[C@H](C)[C@@H](OC(=O)N2CCN(C)CC2)/C=C/[C@@H]1C [Compound 197, [(2S,3S,4E,6R,7S,10R)-2-[(E)-1-(3-fluoro-5-pyrrolidin-1-ylsulfonylphenyl)prop-1-en-2-yl]-10-hydroxy-3,7-dimethyl-12-oxo-1-oxacyclododec-4-en-6-yl] 4-methylpiperazine-1-carboxylate] | 98.5 nM | 22.8 nM |  |  |  |  | 2.67 nM |  |  | 4.318 | −91.100% | 3.53 nM | −69.290% | 4.69 nM |  | 
C/C(=C\c1cccc(S(=O)(=O)N2CCC2)c1)[C@H]1OC(=O)C[C@H](O)CC[C@H](C)[C@@H](OC(=O)N2CCN(C)CC2)/C=C/[C@@H]1C [Compound 198, [(2S,3S,4E,6R,7S,10R)-2-[(E)-1-[3-(azetidin-1-ylsulfonyl)phenyl]prop-1-en-2-yl]-10-hydroxy-3,7-dimethyl-12-oxo-1-oxacyclododec-4-en-6-yl] 4-methylpiperazine-1-carboxylate] | 2390 nM | 43.2 nM |  |  |  |  | 7.82 nM |  |  | 55.224 | −96.773% |  | −56.095% |  | 21.7 nM | 15.5 nM
C/C(=C\c1cccc(S(=O)(=O)N2CC[C@@H](O)C2)c1)[C@H]1OC(=O)C[C@H](O)CC[C@H](C)[C@@H](OC(=O)N2CCN(C)CC2)/C=C/[C@@H]1C [Compound 199, [(2S,3S,4E,6R,7S,10R)-10-hydroxy-2-[(E)-1-[3-[(3R)-3-hydroxypyrrolidin-1-yl]sulfonylphenyl]prop-1-en-2-yl]-3,7-dimethyl-12-oxo-1-oxacyclododec-4-en-6-yl] 4-methylpiperazine-1-carboxylate] | 1820 nM | 47.2 nM |  |  |  |  | 8.99 nM |  |  | 38.638 | −95.445% |  | −52.026% |  | 33.8 nM | 22.9 nM
C/C(=C\c1cccc(S(=O)(=O)NC(C)(C)CO)c1)[C@H]1OC(=O)C[C@H](O)CC[C@H](C)[C@@H](OC(=O)N2CCN(C)CC2)/C=C/[C@@H]1C [Compound 201, [(2S,3S,4E,6R,7S,10R)-10-hydroxy-2-[(E)-1-[3-[(1-hydroxy-2-methylpropan-2-yl)sulfamoyl]phenyl]prop-1-en-2-yl]-3,7-dimethyl-12-oxo-1-oxacyclododec-4-en-6-yl] 4-methylpiperazine-1-carboxylate] | 620 nM | 17.5 nM |  |  |  |  | 5.64 nM |  |  | 35.485 | −91.697% |  | −48.055% |  | 40.9 nM | 27.5 nM
C/C(=C\c1cccc(S(=O)(=O)N2CCC(F)(F)CC2)c1)[C@H]1OC(=O)C[C@H](O)CC[C@H](C)[C@@H](OC(=O)N2CCN(C)CC2)/C=C/[C@@H]1C [Compound 202, [(2S,3S,4E,6R,7S,10R)-2-[(E)-1-[3-(4,4-difluoropiperidin-1-yl)sulfonylphenyl]prop-1-en-2-yl]-10-hydroxy-3,7-dimethyl-12-oxo-1-oxacyclododec-4-en-6-yl] 4-methylpiperazine-1-carboxylate] | 4470 nM | 25.2 nM |  |  |  |  | 14.1 nM |  |  | 177.387 | −93.824% |  | −59.083% |  | 24.7 nM | 29.4 nM
C/C(=C\c1ccc(C)c(S(=O)(=O)N2CCCC2)c1)[C@H]1OC(=O)C[C@H](O)CC[C@H](C)[C@@H](OC(=O)N2CCN(C)CC2)/C=C/[C@@H]1C [Compound 203, [(2S,3S,4E,6R,7S,10R)-10-hydroxy-3,7-dimethyl-2-[(E)-1-(4-methyl-3-pyrrolidin-1-ylsulfonylphenyl)prop-1-en-2-yl]-12-oxo-1-oxacyclododec-4-en-6-yl] 4-methylpiperazine-1-carboxylate] | 14400 nM | 69.7 nM |  |  |  |  | 10.1 nM |  |  | 207.149 | −94.627% |  | −36.664% |  | 45 nM | 47.3 nM
C/C(=C\c1cncc(S(=O)(=O)N2CCCC2)c1)[C@H]1OC(=O)C[C@H](O)CC[C@H](C)[C@@H](OC(=O)N2CCN(C)CC2)/C=C/[C@@H]1C [Compound 205, [(2S,3S,4E,6R,7S,10R)-10-hydroxy-3,7-dimethyl-12-oxo-2-[(E)-1-(5-pyrrolidin-1-ylsulfonylpyridin-3-yl)prop-1-en-2-yl]-1-oxacyclododec-4-en-6-yl] 4-methylpiperazine-1-carboxylate] | > 25000 nM | 108 nM |  |  |  |  | 16.2 nM |  |  | 232.132 | −91.576% |  | −28.455% |  | 70.8 nM | 85.9 nM
